Data from article PMC12300298, “Expanding the Antiviral Spectrum of Scorpion-Derived Peptides Against Toscana Virus and Schmallenberg Virus” (Pathogens, 2025).
Read-outs that look alike come from different tables or passages of the source. No end group written: not given here.

Experiments:
CRFK cells = test: MTT cytotoxicity, CRFK cells; type: cell-based, feline; settings: 24 h peptide treatment, 3-200 µM, 37 °C, absorbance 570 nm, nonlinear regression, at least three independent experiments
Experimental: (§1) BHK-21, U-87 MG, A-72, and CRFK cells were seeded in 96-well plates at an initial density of 2 × 10^4 cells per well and incubated for 24 h at 37 °C. Then, serial dilutions of peptides ranging from 3 to 200 µM were added to the cell monolayer and incubated for 24 h at 37 °C. Cytotoxicity was evaluated by adding 5 μL of methylthiazolyldiphenyl-tetrazolium bromide (MTT; cod. M2003, Sigma-Aldrich, St. Louis, MO, USA) to each well. After 4 h of incubation, the plate was emptied, and formazan crystals were solubilized with dimethyl sulfoxide (DMSO; 100%). Cell viability was calculated by measuring absorbance at 570 nm using a microplate reader. The negative control (CTRL−, toxicity control) consisted of cells treated with DMSO, while the positive control (CTRL+, viable cells) included untreated cells.
(§2) All tests were performed in triplicate and expressed as mean ± standard deviation (SD). Graphs and statistical analysis were generated using GraphPad Prism version 9.5.1 for macOS (GraphPad Software, San Diego, CA, USA, www.graphpad.com, accessed on 5 February 2025). The 50% cytotoxic concentration (CC50) and the 50% inhibitory concentration (IC50) were calculated by nonlinear regression analysis based on dose–response curves generated from at least three independent experiments.

BHK-21 cells = test: MTT cytotoxicity, BHK-21 cells; type: cell-based, hamster; settings: 24 h peptide treatment, 3-200 µM, 37 °C, absorbance 570 nm, nonlinear regression, at least three independent experiments
Experimental: as §1, §2

SBV [1] = settings: 48 h
A-72 cells = test: MTT cytotoxicity, A-72 cells; type: cell-based, canine; settings: 24 h peptide treatment, 3-200 µM, 37 °C, absorbance 570 nm, nonlinear regression, at least three independent experiments
Experimental: as §1, §2

U-87 MG cells = test: MTT cytotoxicity, U-87 MG cells; type: cell-based, human; settings: 24 h peptide treatment, 3-200 µM, 37 °C, absorbance 570 nm, nonlinear regression, at least three independent experiments
Experimental: as §1, §2

SBV [2] = settings: 48 h; remark: listed apart in the source
SBV [3] = settings: 1 h
[4] = system: BHK-21, A-72, CRFK, and U-87 MG cells; test: MTT cytotoxicity, statements for all tested cell lines; type: cell-based; settings: 24 h, concentrations of 50 μM and below
Experimental: as §1

TOSV [5] = settings: 24 h
TOSV [6] = settings: 24 h; remark: listed apart in the source
TOSV [7] = settings: 24 h; remark: listed apart in the source

| Substance | CC50 (CRFK cells) | CC50 (BHK-21 cells) | IC50 (SBV [1]) | CC50 (A-72 cells) | CC50 (U-87 MG cells) | IC50 (SBV [2]) | IC50 (SBV [3]) | Cytotoxicity at 50 μM and below [4] | IC50 (TOSV [5]) | IC50 (TOSV [6]) | IC50 (TOSV [7]) |
| --- | --- | --- | --- | --- | --- | --- | --- | --- | --- | --- | --- |
| GILGKLWEGFKSIV-NH2 [pantinin-1] | 93.5 µM | 136.6 µM | 5.8 µM | 93.6 µM | 114.3 µM | 6 µM | 12.8 µM | neither pantinin-1 nor pantinin-2 induced any detectable cytotoxicity | – | – | – |
| IFGAIWKGISSLL-NH2 [pantinin-2] | 82.2 µM | 100.8 µM | – | 90.7 µM | 82 µM | – | 4.8 µM | neither pantinin-1 nor pantinin-2 induced any detectable cytotoxicity | 3 µM | 3 µM | 3 µM |
